In publication PMC10928576, “Cpne7 deficiency induces cellular senescence and premature aging of dental pulp” (Aging Cell, 2023):

Columns and labels:
hDPCs [1] = assay: γ-H2AX / P21 western blot in H2O2-treated hDPCs; format: cell-based, human
Method: Cellular proteins (30 μg) were separated by 10% or 15% sodium dodecyl sulfate‐polyacrylamide gel electrophoresis (SDS‐PAGE) and transferred to polyvinylidene fluoride (PVDF) membranes. The PVDF membranes were blocked for 1 h with 5% nonfat dry milk in Tris‐buffered saline containing 0.1% Tween 20 (TBS‐T) and incubated overnight at 4°C with the primary antibody diluted in TBS‐T (1:5000). After washing, membranes were incubated for 1 h with the appropriate secondary antibodies. Labeled protein bands were detected under an enhanced chemiluminescence system (Amersham Biosciences/GE Healthcare). All reactions were performed in triplicate. Semi‐quantitative analyses were performed using Image J software (National Institute of Health, MD, USA) (n = 3, each group).

hDPCs [2] = conditions: 30 min or 1 h after H2O2 100 μM, 500 μM or 1 mM
hDPCs [3] = assay: Comet assay; format: cell-based, human; conditions: 1 mM H2O2
Method: Human DPCs were combined with Comet Agarose (Abcam, ab238544) at 1/10 ratio (v/v), mixed by pipetting, and immediately transferred onto the top of the Comer Agarose Base Layer Slide (Abcam, ab238544). Set horizontally, the slides were incubated at 4°C in the dark for 15 min, and placed in a small basin/container containing pre‐chilled Lysis Buffer (Abcam, ab238544). They were immersed in the buffer for 1 h at 4°C in the dark. After 1 h, aspiration of the Lysis Buffer from the container was done and replaced with a pre‐chilled Alkaline Solution (Abcam, ab238544), followed by electrophoresis chamber filled with the Alkaline Electrophoresis Solution. Voltage was applied to the chamber for 30 min at 1 volt/cm. The slides were then rinsed with pre‐chilled DI H2O and replaced with cold 70% Ethanol for 5 min. The slide was removed from the 70% Ethanol and allowed to air dry. Once the slide was completely dry, staining with Vista Green DNA Dye (Abcam, ab238544) was done at room temperature for 15 min. Cells were visualized using confocal microscopy (LSM980, Zeiss, Germany) (n = 3, each group).

hDPCs [4] = system: hDPCs
hDPCs [5] = assay: γ-H2AX immunofluorescence in hDPCs; format: cell-based, human; conditions: 1 mM H2O2, vs control
Method: Human DPCs and tissue sections were treated with phosphate‐buffered saline (PBS) and 0.5% Triton X‐100 for permeabilization. After washing and blocking, cells and tissue samples were incubated overnight at 4°C with γ‐H2AX (1:100, Cell Signaling Technology, #9718) and CPNE7 (1:100) in blocking buffer (PBS and 2% bovine serum albumin). Subsequently, FITC‐conjugated anti‐rabbit secondary antibody (1:500) or Cy3‐conjugated anti‐rabbit (1:500) was applied. Cells were visualized using confocal microscopy (LSM980, Zeiss, Germany). The chromosomal DNA in the nucleus was stained with 4′,6‐diamidino‐2‐phenylindole (DAPI). The microtubules were detected using α‐TUBULIN antibodies (1:1000; Santa Cruz), and F‐ACTIN was stained with Alexa Fluor 488 or rhodamine‐conjugated phalloidin (Invitrogen). Flag‐tagged rCPNE7 was detected using Flag‐antibodies (1:500; Sigma–Aldrich), and TAU was detected by TAU antibodies (1:100; CUSABIO). Immunofluorescence staining of TAU, F‐ACTIN, and α‐TUBULIN was analyzed using the IMARIS cell imaging software (Bitplane) (n = 3, each group).

hDPCs [6] = assay: Senescence β-galactosidase (SA-β gal) staining of H2O2-treated hDPCs; format: cell-based, human; conditions: hDPCs, 1 mM H2O2, 30 min
Method: The hDPCs were obtained from the Seoul National University Dental Hospital, and the experimental protocol was accepted by the Institutional Review Board of the Seoul National University (S‐D20140007). Informed consent was obtained from patients. Human DPCs were isolated and used in an in vitro experiment as described previously (Jung et al., [2011]). Human DPCs were cultured in minimum essential medium α (Gibco BRL, 12571063) supplemented with 10% heat‐inactivated fetal bovine serum (FBS; Gibco BRL, 16000044) and antibiotic‐antimycotic (Gibco BRL, 15240062) at 37°C in an atmosphere with 5% CO2. The cells were then treated with recombinant CPNE7 protein (rCPNE7, 100 ng/mL; Origene, TP306428) or CPNE7‐derived peptide (CPNE7‐DP, 10 μg/mL). After oxidative stress‐induced DNA damage using Hydrogen Peroxide Solution (H2O2; Merck, H1009) rCPNE7 was treated after replacement with a new culture medium (α‐MEM).
Human DPCs were fixated with Fixative Solution (Cell Signaling Technology, #9860) at room temperature for 15 min. Rinsed twice with PBS, the cells were then stained with β‐Galactosidase Staining Solution (Cell Signaling Technology, #9860) at 37°C overnight in a dry incubator (no CO2). Cells were observed using light microscopy (Primovert, Zeiss, Germany) (n = 3, each group).

SMILES: OO [H2O2, hydrogen peroxide, reference compound]
- expressions of γ-H2AX and P21 (DNA damage and cell cycle arrest) (hDPCs [1]; 500 μM H2O2): upregulated
- protein expression level of γ-H2AX (western blot) (hDPCs [1]; 1 mM and 2 mM H2O2): clearly detected
- endogenous mRNA expression level of Cpne7 (hDPCs [2]): started to increase
- DNA fragmentation (comet assay) (hDPCs [3]): fragmented DNA visualized as a cell tail
- cytotoxicity of oxidative stress (hDPCs [4]; 1 mM and 2 mM H2O2, after 48 h): severe cytotoxicity
- cell death / survival rate (WST-8) (hDPCs [4]; H2O2 50 μM to 2 mM for 24 h): cell death occurred in a concentration‐dependent manner except for 50 μM
- expression of γ-H2AX (immunofluorescence) (hDPCs [5]): specifically detected in cellular nuclei
- SA-β gal positive signals (induction of senescence) (hDPCs [6]): began to deposit
